Each block holds one molecule with its values, some of them ahead of it. Active and inactive are the calls of the source.
Key:
Albumin = Albumin (Bos taurus, UniProt P02769); assay: Counterscreen for inhibitors of T-cell receptor (TCR)-CD3 interaction: Fluorescence-based biochemical high throughput dose response assay to identify inhibitors of T-cell receptor (TCR)-CD3 interaction using a TAMRA-labeled BSA probe.; format: functional
[1] = target: Disintegrin and metalloproteinase domain-containing protein 17 (Homo sapiens, UniProt P78536); assay: exosite inhibitors of ADAM17, dose response, biochemical (AID 743260)
Sequence of Disintegrin and metalloproteinase domain-containing protein 17 (P78536 whole entry, the tested form may be a part): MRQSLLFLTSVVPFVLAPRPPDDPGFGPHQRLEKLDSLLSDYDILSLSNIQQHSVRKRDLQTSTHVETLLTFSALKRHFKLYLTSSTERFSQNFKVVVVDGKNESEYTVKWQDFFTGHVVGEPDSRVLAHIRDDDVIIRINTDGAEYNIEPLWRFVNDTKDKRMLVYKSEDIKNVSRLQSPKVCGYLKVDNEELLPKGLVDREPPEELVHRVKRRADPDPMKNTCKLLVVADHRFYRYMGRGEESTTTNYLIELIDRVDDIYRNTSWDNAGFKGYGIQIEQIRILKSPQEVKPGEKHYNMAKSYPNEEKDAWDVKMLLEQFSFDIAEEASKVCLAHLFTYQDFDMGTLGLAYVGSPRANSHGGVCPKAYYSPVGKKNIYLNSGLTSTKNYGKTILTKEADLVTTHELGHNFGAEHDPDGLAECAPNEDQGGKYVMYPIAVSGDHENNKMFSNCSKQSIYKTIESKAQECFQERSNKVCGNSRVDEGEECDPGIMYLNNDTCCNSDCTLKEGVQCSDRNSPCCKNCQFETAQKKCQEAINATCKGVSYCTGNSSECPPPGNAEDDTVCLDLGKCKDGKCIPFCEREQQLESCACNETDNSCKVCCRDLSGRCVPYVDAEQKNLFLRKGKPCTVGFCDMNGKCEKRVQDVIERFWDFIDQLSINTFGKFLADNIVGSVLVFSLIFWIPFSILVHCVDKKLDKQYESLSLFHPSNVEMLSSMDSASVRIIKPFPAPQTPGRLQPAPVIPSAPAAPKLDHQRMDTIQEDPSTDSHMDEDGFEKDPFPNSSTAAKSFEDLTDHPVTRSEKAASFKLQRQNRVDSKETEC

[2] = ADAM10 protease inhibitors, dose response, selectivity assay for ADAM17 exosite inhibitor project, biochemical, FRET peptide substrate, recombinant human ADAM10 (AID 743259);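 also: ADAM10 enzyme cleaving a FRET peptide substrate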
cells [3] = format: functional, cell-based
[4] = target: T1, Trace amine-associated receptor 1 (Homo sapiens, UniProt Q96RJ0); assay: Fluorescence-based cell-based high throughput dose response assay to identify agonists of the human trace amine associated receptor 1 (TAAR1).; format: functional
T1 sequence (Q96RJ0 whole entry): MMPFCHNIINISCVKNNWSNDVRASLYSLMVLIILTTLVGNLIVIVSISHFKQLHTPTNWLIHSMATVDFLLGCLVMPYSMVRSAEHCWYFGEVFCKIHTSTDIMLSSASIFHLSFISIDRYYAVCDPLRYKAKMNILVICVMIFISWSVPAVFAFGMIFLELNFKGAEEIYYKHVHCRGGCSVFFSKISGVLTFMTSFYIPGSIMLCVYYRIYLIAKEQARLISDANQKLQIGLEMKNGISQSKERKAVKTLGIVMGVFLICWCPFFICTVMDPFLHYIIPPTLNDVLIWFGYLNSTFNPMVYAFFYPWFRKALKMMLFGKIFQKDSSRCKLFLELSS

[5] = target: T1, Trace amine-associated receptor 1; assay: Counterscreen for agonists of the human trace amine associated receptor 1 (hTAAR1): Fluorescence-based cell-based high throughput dose response assay to identify hTAAR1 agonist that also desensitize TAAR1 receptor response.; format: functional
cells [6] = format: functional, cell-based; remark: listed apart in the source
[7] = target: Induced myeloid leukemia cell differentiation protein Mcl-1 (Homo sapiens, UniProt Q07820); format: functional
Sequence of Induced myeloid leukemia cell differentiation protein Mcl-1 (Q07820 whole entry): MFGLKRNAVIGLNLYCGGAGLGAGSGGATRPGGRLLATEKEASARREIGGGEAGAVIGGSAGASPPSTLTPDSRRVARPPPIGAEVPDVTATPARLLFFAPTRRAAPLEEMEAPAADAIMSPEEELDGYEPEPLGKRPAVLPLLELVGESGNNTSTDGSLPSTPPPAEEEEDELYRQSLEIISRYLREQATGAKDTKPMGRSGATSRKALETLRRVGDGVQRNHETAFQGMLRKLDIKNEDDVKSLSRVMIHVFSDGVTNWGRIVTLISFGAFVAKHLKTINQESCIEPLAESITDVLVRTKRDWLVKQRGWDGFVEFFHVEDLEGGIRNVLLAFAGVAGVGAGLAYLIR

[8] = target: T2, Mannose-6-phosphate isomerase (Homo sapiens, UniProt P34949); assay: human PMI inhibitors, high substrate, primary screen, biochemical, fluorescence intensity, high mannose 6-phosphate (AID 1220)
T2 sequence (P34949 whole entry): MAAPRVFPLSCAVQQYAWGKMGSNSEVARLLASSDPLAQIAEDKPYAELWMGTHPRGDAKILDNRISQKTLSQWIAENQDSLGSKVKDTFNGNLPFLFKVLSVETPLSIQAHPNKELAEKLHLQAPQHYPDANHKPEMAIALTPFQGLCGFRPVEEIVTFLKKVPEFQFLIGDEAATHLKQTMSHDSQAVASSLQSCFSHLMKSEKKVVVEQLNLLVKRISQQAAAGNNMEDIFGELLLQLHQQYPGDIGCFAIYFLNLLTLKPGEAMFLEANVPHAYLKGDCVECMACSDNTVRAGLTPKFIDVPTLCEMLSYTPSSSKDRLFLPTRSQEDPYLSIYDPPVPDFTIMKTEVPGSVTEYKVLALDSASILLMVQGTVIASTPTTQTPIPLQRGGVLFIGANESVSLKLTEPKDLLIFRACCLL

[9] = target: Eukaryotic translation initiation factor 4E (Mus musculus, UniProt P63073); assay: eIF4E–eIF4G protein interaction inhibitors, dose response, biochemical, TR-FRET (AID 855); format: functional;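 also: potency for disrupting eIF4E binding to eIF4GI seen as loss of FRET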
Sequence of Eukaryotic translation initiation factor 4E (P63073 whole entry): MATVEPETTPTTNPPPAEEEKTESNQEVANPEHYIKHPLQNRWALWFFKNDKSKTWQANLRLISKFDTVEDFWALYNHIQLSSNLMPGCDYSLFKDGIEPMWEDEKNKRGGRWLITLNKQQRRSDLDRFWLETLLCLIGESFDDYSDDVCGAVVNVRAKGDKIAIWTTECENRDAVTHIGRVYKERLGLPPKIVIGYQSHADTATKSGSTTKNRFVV

Vero = Vero cell cytotoxicity, cytotoxicity control for flavivirus capping enzyme inhibitors (AID 588742); format: functional; conditions: Chlorocebus sabaeus
Genome polyprotein = Genome polyprotein (dengue virus type 2, UniProt P29990); assay: Dengue-2 NS5 methyltransferase inhibitors, primary screen, biochemical, confirmation dose response (AID 588689); format: functional
Mu-type opioid receptor = Mu-type opioid receptor (Homo sapiens, UniProt P35372); format: functional, cell-based;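 also: U2OS cells with beta-arrestin recruitment to OPRM1 by beta-gal complementation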
[10] = target: 5-hydroxytryptamine receptor 2A (Mus musculus, UniProt P35363); format: functional, cell-based;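 also: CHO-K1 cells with tagged receptor and beta-arrestin; agonist potency measured as compound-induced activation of the receptor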
Sequence of 5-hydroxytryptamine receptor 2A (P35363 whole entry): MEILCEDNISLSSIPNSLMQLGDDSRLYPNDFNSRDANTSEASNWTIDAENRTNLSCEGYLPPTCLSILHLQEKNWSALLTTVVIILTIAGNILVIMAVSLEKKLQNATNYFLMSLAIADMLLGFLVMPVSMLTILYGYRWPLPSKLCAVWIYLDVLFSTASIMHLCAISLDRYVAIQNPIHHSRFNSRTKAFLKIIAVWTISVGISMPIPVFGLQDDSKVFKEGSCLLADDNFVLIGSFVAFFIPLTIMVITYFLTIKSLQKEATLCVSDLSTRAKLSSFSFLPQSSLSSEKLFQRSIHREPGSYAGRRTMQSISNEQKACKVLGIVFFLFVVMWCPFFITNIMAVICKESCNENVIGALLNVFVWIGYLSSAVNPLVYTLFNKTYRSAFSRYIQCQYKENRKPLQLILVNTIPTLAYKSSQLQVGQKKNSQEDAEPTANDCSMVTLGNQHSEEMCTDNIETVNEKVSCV

[11] = target: T3, Histone-lysine N-methyltransferase NSD2 (Homo sapiens, UniProt O96028); format: biochemical
T3 sequence (O96028 whole entry): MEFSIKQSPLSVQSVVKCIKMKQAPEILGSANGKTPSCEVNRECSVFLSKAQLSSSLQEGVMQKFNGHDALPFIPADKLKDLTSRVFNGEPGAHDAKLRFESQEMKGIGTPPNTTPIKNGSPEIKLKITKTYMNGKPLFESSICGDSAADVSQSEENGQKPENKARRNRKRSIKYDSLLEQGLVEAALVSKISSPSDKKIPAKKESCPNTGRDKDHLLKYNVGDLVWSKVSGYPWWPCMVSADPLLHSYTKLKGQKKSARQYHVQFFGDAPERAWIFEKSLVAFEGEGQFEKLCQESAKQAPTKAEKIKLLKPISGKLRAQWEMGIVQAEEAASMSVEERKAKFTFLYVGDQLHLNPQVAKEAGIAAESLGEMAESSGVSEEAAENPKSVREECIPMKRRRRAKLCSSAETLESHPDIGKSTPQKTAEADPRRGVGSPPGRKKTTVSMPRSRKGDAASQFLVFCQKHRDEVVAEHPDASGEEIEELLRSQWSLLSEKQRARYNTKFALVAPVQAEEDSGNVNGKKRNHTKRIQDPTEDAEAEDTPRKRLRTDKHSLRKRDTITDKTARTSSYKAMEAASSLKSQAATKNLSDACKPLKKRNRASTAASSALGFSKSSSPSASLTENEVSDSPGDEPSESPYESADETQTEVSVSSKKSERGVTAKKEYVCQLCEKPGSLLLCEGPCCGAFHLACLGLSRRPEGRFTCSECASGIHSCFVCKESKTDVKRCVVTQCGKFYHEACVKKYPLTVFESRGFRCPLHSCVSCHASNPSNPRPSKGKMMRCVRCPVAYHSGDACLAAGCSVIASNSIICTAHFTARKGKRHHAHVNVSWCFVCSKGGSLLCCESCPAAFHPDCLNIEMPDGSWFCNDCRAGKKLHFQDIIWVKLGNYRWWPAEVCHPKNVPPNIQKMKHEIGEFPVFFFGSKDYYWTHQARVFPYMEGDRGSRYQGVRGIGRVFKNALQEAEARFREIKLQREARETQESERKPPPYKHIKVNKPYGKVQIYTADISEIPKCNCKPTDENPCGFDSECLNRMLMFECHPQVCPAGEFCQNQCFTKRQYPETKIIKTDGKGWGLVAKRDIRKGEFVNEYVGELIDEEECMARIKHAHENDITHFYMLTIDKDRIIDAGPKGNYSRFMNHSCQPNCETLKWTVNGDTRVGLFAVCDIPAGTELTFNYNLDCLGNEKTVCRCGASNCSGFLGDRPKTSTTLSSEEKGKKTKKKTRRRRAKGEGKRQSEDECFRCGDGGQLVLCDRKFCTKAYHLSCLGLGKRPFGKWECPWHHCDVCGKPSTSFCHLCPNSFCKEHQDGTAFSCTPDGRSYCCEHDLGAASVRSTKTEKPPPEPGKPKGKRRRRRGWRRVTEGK

[12] = inhibitors of intracellular T. cruzi replication, confirmation, NIH3T3 host cells, beta-gal luminescence (AID 2044); format: functional, cell-based;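 also: intracellular parasites grown in NIH/3T3 mouse fibroblasts as host cells; luminescent beta-galactosidase reporter signal from transgenic T. cruzi replicating inside host cells; inhibitors lower the luminescence signal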
[13] = growth suppression of PTEN-null colon cells, dose response, cell-based, HCT116 PTEN knockout (AID 1047); format: functional;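 also: HCT116 colon tumor cells with PTEN knocked out; cells exposed to compound for 60 hours before readout; potency for loss of cell viability measured by luminescence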
[14] = cytotoxicity toward NIH3T3 fibroblasts, dose response, counter-screen, cell-based, ATP luminescence, mouse fibroblasts (AID 2010); format: functional;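 also: cells exposed to compound for about 90 hours before reading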
[15] = growth suppression of beta-catenin-knockout colon cells, dose response, cell-based, HCT116, human colon tumor (AID 1045); format: functional;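 also: HCT116 colon tumor cells with beta catenin knocked out; cells exposed to compound for 60 hours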
[16] = target: Matrix metalloproteinase-14 (Homo sapiens, UniProt P50281); assay: Dose Response confirmation of uHTS hits for a small molecule inhibitors of MT1-MMP activation in a fluorescence assay set 1.; format: functional
INS1 = assay: beta cell apoptosis inhibitors, cytokine rescue, dose response, luminescence, retest (AID 449756); format: functional, cell-based; conditions: Rattus norvegicus;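 also: cell death triggered by IL-1 beta plus TNF-alpha plus IFN-gamma mixture; protective hits raise ATP signal compared with cytokine alone wells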
[17] = inhibitors of HIV Env-driven cell fusion, dose response, cherry-pick (AID 652057); format: functional, cell-based
[18] = CEM21 lymphoblast cell cytotoxicity, dose response, cytotoxicity control for viral fusion inhibitor project, CellTiter-Glo luminescence, cherry-picked (AID 652042); format: functional, cell-based;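 also: potency for signal decrease meaning cytotoxicity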
[19] = ZM109 Env clade C HIV-1 fusion inhibitors, dose response, HeLa effector, CEM target cells, luciferase, cherry-pick (AID 652058); format: functional, cell-based
[20] = off-target signal loss in HeLa-CEM21 co-culture – HeLa F-luc CTL cells, cherry-picked, counter-screen for HIV-1 Env fusion inhibitor project, dose response (AID 652040); format: functional, cell-based;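 also: potency for signal decrease marking cytotoxic or nonspecific inhibition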
[21] = inhibitors of clade B AD8 Env fusion, dose response, cell-based, cherry-pick (AID 652062); format: functional;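 also: luciferase signal from cell-cell fusion driven by HIV-1 clade B AD8 Env; potency is for inhibitors of fusion seen as a drop in luminescence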
Fatty acid synthase [22] = target: T4, Fatty acid synthase (Homo sapiens, UniProt P49327); assay: FAS thioesterase domain inhibitors, dose response, biochemical, endpoint fluorescence intensity, uHTS hits (AID 624327); format: functional;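 also: fluorescence from hydrolysis of an O-methyl fluorescein acyl ester substrate by the enzyme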
T4 sequence (P49327 whole entry, the tested form may be a part): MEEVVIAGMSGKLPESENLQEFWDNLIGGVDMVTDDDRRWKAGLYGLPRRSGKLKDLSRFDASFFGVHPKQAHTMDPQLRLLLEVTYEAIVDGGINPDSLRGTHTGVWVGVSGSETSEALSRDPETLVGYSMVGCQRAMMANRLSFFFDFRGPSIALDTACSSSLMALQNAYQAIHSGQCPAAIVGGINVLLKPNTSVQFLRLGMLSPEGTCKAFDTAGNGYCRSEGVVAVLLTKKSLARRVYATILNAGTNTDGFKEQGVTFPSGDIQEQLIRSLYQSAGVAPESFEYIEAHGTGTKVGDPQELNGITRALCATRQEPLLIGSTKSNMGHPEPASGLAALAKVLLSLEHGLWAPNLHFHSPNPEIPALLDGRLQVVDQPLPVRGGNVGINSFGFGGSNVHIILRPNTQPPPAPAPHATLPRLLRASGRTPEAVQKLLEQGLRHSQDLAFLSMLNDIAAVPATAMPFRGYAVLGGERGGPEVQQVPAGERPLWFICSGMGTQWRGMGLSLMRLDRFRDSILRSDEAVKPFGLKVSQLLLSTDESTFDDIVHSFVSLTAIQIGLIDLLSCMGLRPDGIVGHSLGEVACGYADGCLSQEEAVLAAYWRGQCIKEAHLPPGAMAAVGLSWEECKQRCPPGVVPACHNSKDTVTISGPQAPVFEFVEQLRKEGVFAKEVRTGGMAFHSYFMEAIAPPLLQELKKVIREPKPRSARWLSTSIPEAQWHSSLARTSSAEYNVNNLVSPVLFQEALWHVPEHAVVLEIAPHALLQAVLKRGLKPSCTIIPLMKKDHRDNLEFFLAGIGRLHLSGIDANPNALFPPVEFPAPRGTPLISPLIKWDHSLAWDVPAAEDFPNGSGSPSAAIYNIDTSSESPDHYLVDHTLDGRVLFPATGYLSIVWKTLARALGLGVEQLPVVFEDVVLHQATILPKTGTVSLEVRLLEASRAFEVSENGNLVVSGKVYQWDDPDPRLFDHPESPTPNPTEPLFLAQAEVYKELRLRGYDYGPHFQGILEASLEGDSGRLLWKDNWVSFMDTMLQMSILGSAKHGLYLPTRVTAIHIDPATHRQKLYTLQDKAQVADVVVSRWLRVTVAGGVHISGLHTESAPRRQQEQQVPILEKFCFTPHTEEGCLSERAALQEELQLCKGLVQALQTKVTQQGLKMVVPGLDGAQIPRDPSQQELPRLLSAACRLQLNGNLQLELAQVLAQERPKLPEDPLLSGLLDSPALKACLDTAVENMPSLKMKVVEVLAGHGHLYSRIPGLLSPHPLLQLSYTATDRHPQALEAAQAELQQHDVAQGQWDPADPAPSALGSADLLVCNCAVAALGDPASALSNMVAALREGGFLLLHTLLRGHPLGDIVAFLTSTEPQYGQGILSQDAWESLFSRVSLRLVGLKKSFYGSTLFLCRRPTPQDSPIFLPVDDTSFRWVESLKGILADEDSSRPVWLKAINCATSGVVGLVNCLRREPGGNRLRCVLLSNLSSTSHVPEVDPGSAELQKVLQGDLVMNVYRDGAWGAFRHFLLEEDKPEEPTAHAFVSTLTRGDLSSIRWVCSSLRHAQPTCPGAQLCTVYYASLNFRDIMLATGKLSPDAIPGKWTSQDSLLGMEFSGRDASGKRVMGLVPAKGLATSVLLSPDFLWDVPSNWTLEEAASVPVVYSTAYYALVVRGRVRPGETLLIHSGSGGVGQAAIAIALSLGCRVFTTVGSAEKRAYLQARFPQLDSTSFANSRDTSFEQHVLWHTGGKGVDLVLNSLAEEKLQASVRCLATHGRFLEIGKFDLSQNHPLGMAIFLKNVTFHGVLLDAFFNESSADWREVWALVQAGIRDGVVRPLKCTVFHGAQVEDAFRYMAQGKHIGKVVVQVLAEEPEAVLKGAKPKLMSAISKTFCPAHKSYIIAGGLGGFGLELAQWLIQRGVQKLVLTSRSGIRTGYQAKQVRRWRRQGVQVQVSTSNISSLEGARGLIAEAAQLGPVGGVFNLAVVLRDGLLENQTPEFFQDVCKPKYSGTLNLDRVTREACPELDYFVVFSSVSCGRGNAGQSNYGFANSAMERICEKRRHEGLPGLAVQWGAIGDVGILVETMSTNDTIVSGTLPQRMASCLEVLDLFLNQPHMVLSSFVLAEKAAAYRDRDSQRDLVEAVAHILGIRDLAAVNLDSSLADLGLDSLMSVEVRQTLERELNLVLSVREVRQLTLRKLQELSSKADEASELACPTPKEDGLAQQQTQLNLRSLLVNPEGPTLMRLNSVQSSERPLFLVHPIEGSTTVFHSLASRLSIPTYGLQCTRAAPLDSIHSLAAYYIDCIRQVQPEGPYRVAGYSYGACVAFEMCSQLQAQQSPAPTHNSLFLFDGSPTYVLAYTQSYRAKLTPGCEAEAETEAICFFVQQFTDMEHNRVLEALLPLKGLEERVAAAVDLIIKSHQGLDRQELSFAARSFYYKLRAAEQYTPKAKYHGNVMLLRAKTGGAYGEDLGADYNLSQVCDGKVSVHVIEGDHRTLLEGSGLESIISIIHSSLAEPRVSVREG

Fatty acid synthase [23] = target: T4, Fatty acid synthase; assay: FAS thioesterase domain inhibitors, dose response, biochemical, kinetic fluorescence intensity (AID 624326); format: functional;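 also: rate of fluorescence rise from hydrolysis of a fluorogenic O-methyl fluorescein ester substrate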

Sequence of Albumin (P02769 whole entry, the tested form may be a part): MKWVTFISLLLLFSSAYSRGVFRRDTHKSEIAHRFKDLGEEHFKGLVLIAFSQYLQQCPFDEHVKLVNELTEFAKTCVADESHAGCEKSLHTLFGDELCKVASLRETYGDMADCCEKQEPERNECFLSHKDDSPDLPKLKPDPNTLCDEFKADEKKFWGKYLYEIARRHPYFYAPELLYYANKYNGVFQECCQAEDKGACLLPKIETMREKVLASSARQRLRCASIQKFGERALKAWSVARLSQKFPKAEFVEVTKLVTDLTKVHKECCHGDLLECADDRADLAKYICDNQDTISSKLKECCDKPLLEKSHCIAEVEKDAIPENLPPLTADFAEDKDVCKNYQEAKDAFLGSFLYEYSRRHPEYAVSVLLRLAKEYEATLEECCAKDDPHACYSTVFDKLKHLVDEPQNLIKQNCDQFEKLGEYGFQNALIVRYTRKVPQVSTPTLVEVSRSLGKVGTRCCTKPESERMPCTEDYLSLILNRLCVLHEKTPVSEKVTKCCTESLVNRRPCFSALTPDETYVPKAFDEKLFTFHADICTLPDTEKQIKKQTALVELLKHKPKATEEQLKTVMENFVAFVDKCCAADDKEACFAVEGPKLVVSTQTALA

- IC50 (Albumin): > 94.1 µM (inactive)
- IC50 [1]: > 69.5 µM (inactive)
Structure (SMILES): COc1ccccc1N(C)S(=O)(=O)c1ccc(C(=O)NNC(=O)c2ccccc2O)cc1
- IC50 [2]: > 69.5 µM (inactive)

Structure (SMILES): Cc1ccccc1-n1c(=O)cc(N2CCc3ccccc3C2)[nH]c1=O
- IC50 (cells [3]): > 29.9 µM (inactive)
- EC50 [4]: 2.59 µM (active)
- IC50 [5]: 7.07 µM (active)
- EC50 (cells [6]): > 29.9 µM (inactive)

- IC50 [7]: 1.6 µM (active)
- IC50 [8]: 32 µM (active)
- IC50 [9]: 36 µM (inactive)
- IC50 (Genome polyprotein): > 100 µM (active)
- EC50 (Mu-type opioid receptor): 92.5 µM (inactive)
- EC50 [10]: 11.6 µM (inactive)
- AC50 [11]: 1.16 µM (active)
Structure (SMILES): COCC/N=c1\scc(-c2ccco2)n1/N=C/c1ccc(O)c(O)c1O
- CC50 (Vero): 38.6 µM (active)

Structure (SMILES): Nc1nc(-c2ccc(Cl)cc2)c(N=Nc2ccc(S(=O)(=O)N3CCOCC3)cc2)s1
- EC50 [12]: 1.96 µM (active)
- EC50 [13]: 16.5 µM (active)
- EC50 [14]: > 60 µM (inconclusive)
- EC50 [15]: 17.4 µM (active)
- IC50 [16]: 27.7 µM (inactive)

Structure (SMILES): S=C(NCCCN1CCOCC1)N1CCN(c2nc(-c3ccc(Cl)cc3)cs2)CC1
- AC50 (INS1): 11.2 µM (active)
- AC50 [17]: 31 µM (active)
- AC50 [18]: 19.9 µM (active)
- AC50 [19]: 0.888 µM (active)
- AC50 [20]: 25.9 µM (active)
- AC50 [21]: 7.13 µM (active)

Structure (SMILES): O=C(N/N=C/c1cc([N+](=O)[O-])cc([N+](=O)[O-])c1O)/C(=C\c1cccs1)NC(=O)c1ccccc1
- IC50 (Fatty acid synthase [22]): 6.3 µM (active)
- IC50 (Fatty acid synthase [23]): 4.89 µM (active)
- IC50 (Albumin): > 94.1 µM (inactive)
